Results published in patent US12398153B2, “Spiro compound serving as ERK inhibitor, and application thereof” (D3 BIO (WUXI) CO., LTD., priority 2019, dated 2025).
Where two headings read alike, the source gives them in different places. Values belong to the molecule of their own block, whether it stands above or below them.

Legend:
[1] = test system: HT29 tumor cells; test: In vitro cell proliferation inhibition assay (CellTiterGlo); type: cell-based
Method: Assay Example 2. In Vitro Cell Proliferation Inhibition Assay
The ability of compounds to inhibit the proliferation of HT29 tumor cells was measured.
The assay compound was dissolved in 100% DMSO to prepare 10 mM stock solution.
• 1) UV light of a biological safety cabin was turned on, and 30 minutes were counted down; • 2) In a 37° C. water bath, RPMI1640 medium and trypsin were preheated; • 3) After completion of the UV irradiation, the biological safety cabin was opened. The preheated medium, trypsin and phosphate buffered saline (PBS), etc. were wiped with alcohol and placed in the biological safety cabin; • 4) HT29 cells were removed from the incubator, and the old medium was removed in biological safety cabin. 10 ml of PBS was added. The mixture was shaken gently, and then PBS was removed; • 5) 1.5 ml of preheated 0.25% trypsin was added. The culture vessel was shaken horizontally so that the trypsin evenly covered the cells at the bottom, and placed in an incubator for 2 minutes; • 6) Cell digestion was stopped with complete medium, and the cell suspension was pipetted to homogeneity and counted; • 7) According to the result of cell counting, the density of cell suspension was adjusted to 1500 cells per well, and the cell suspension was seeded at 50 μl per well; • 8) The stock solution of compounds was serially diluted in DMSO solution, and compounds were added to cell plate using Tecan;
9) The compound-added cell plate and CellTiterGlo were equilibrated at room temperature, and 25 microliters of CellTiterGlo was then added to each well. The cell plate was shaken for 1-2 minutes and then allowed to stand for 10 minutes. The signal value was then detected. The data were analyzed using XL-Fit, and the IC50 of each compound was calculated.

[2] = biological target: ERK2 kinase (Homo sapiens (Human), UniProt P28482); test: Assay of in vitro kinase activity (33P-ATP filter-binding, MBP substrate); type: biochemical
Chain of ERK2 kinase (P28482 whole entry): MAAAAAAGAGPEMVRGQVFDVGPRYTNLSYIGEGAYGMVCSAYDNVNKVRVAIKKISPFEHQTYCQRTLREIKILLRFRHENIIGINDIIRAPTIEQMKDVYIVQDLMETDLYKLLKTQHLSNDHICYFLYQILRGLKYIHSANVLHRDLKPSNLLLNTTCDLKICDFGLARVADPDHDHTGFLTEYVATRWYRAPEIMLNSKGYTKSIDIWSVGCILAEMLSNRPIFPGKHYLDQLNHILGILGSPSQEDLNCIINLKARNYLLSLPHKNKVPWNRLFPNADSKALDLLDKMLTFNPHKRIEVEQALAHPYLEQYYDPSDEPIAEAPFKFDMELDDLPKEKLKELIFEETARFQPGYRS
Method: Assay Example 1. Assay of In Vitro Kinase Activity
The ability of compounds to inhibit ERK2 kinase activity was measured.
20 mM Hepes (pH 7.5), 10 mM MgCl2, 1 mM ethylenebis(oxyethylenenitrilo)tetraacetic acid (EGTA), 0.02% Brij35, 0.02 mg/mL bovine serum albumin (BSA), 0.1 mM Na3VO4, 2 mM dithiothreitol (DTT), 1% DMSO.
The assay compound was dissolved in 100% DMSO to prepare a stock solution of specific concentration. The compound was serially diluted in DMSO solution using Integra Viaflo Assist smart pipette.
• 1) The substrate MBP was prepared in freshly prepared reaction buffer; • 2) ERK2 kinase was added to the above-mentioned MBP solution and mixed gently; • 3) The compound dissolved in 100% DMSO was added to the kinase reaction system using ultrasound technology (Echo550; nanoliter range), and the mixture was incubated at room temperature for 20 minutes; • 4) ^33P-ATP (specific concentration of […]) was added to the reaction system, and the reaction was started at this time; • 5) The mixture was incubated at room temperature for 2 hours; • 6) The amount of radioactivity was detected by filter-binding method; • 7) ERK2 kinase activity was calculated as the ratio of the remaining kinase activity in the assay sample to the kinase activity of the control group (treated by DMSO). Curve was fitted using Prism (GraphPad software) and IC50 values were calculated. 5.

[3] = In vivo DMPK assay in mouse; conditions: female BALB/c mice; for Oral DNAUC (AUCPO/Dose) / Cmax: 3 mg/kg orally; for clearance / Vd / bioavailability / half-life / Cmax: mouse, plasma; for clearance / Vd: iv, 1 mg/kg intravenously; for clearance: read-out: Cl (clearance rate); for Vd: read-out: Vdss (distribution volume); for bioavailability / Cmax: po; for bioavailability: 1 mg/kg intravenously and 3 mg/kg orally, read-out: F % (oral bioavailability); for half-life: single administration, read-out: T1/2 (half-life) (converted); for Cmax: read-out: Cmax (maximum concentration)
Source text: Assay Example 3. Assay of In Vivo DMPK
In vivo DMPK assay in mouse
Female BALB/c mice were used as assay animals to determine the blood concentration of compounds and evaluate the pharmacokinetic behavior after a single administration.
Eight healthy adult female BALB/c mice were selected, wherein 4 mice were in the intravenous injection group and 4 mice were in the oral group. The vehicle in the intravenous injection group was 5% DMSO+95% (20% HP-β-CD). The compound to be assayed was mixed with an appropriate amount of vehicle for intravenous injection, vortexed and sonicated to prepare a clear solution of 0.5 mg/mL. The clear solution was filtered by a microporous membrane, and then ready for use. The vehicle in the oral group was 5% DMSO+95% (20% HP-β-CD). The compound to be assayed was mixed with the vehicle, vortexed and sonicated to prepare a solution of 0.3 mg/mL. Mice were administered 1 mg/kg intravenously or 3 mg/kg orally, and then whole blood was collected for a certain period. Plasma was prepared. The drug concentration was analyzed by LC-MS/MS method, and the pharmacokinetic parameters were calculated by Phoenix WinNonlin software (Pharsight, USA).
Note: DMSO: dimethyl sulfoxide; HP-β-CD: hydroxypropyl-β-cyclodextrin.

[4] = test system: human colon cancer HCT-116 cells; test: In vivo efficacy, subcutaneous xenograft tumor of human colon cancer HCT-116 cells in BALB/c nude mouse; conditions: 15 mg/kg, PO, QD
Method: Assay Example 4. Assay of In Vivo Efficacy of Subcutaneous Xenograft Tumor of Human Colon Cancer HCT-116 Cells in BALB/c Nude Mouse Model
The anti-tumor effect of WX007 was evaluated using a subcutaneous xenograft tumor model of human colon cancer HCT-116 cells in nude mouse.
• Species: mouse • Strain: BALB/c nude mouse • Age: 6-8 weeks old • Gender: female • Weight: 17-23 grams • Vendor: Laboratory Animal Management Department, Shanghai Institute for Biomedical and Pharmaceutical Technologies • Animal certificate number: 20180006020214 3. Assay Procedure: • 1) Assay cells and culture: Human colon cancer HCT-116 cells were cultured in monolayer in vitro. […] When the cell saturation was 80%-90% and the amount reached the requirement, the cells were harvested, counted, and inoculated; • 2) Tumor tissue inoculation and grouping: 0.2 mL (5×10^6) of HCT-116 cells were subcutaneously inoculated into the right armpit of each mouse. […]
• 3) Daily observation of assay animals: The development of this assay protocol and any modifications were evaluated and approved by the Institutional Animal Care and Use Committee (IACUC). […] Animals were monitored daily for health and death. […] The compound was formulated once a week. • 5) Tumor measurement and assay indicator: • a) Tumor diameter was measured twice a week with a vernier caliper. […]

Compound: Cn1nccc1Nc1nccc(-c2nc3c(s2)[C@@]2(CCOC2)N(Cc2cccc(Cl)c2)C3=O)n1 [WX001A]
IC50 [1]: 21 nM
IC50 [2]: 0.31 nM

Compound: Cn1nccc1Nc1nccc(-c2nc3c(s2)C2(CCOCC2)N(Cc2cccc(Cl)c2)C3=O)n1 [WX002]
IC50 ([1]; Homo sapiens, HT-29): 73 nM
IC50 [2]: 0.4 nM

Compound: O=C1c2nc(-c3ccnc(NC4CCOCC4)n3)sc2C2(CCOCC2)N1Cc1cccc(Cl)c1 [WX003]
IC50 ([1]; Homo sapiens, HT-29): 69 nM
IC50 [2]: 0.29 nM

Compound: Cn1nccc1Nc1nccc(-c2nc3c(s2)C2(COC2)N(Cc2cccc(F)c2)C3=O)n1 [WX004]
IC50 ([1]; Homo sapiens, HT-29): 125 nM
IC50 [2]: 1.1 nM

Second part, led by results:

IC50 ([1]; Homo sapiens, HT-29): 49 nM
IC50 [2]: 0.36 nM
Compound: Cn1nccc1Nc1nccc(-c2nc3c(s2)C2(COC2)N(Cc2cccc(Cl)c2)C3=O)n1 [WX005]

IC50 ([1]; Homo sapiens, HT-29): 14 nM
IC50 [2]: 0.94 nM
Oral DNAUC (AUCPO/Dose) [3]: 1356 nM · h/mpk
clearance [3]: 17.2 mL/min/kg
Vd [3]: 1.7 L/kg
bioavailability [3]: 70%
half-life [3]: 1.4 h
Cmax [3]: 1400 nM
Compound: Cc1cnc(Nc2ccnn2C)nc1-c1nc2c(s1)C1(COC1)N(Cc1cccc(F)c1)C2=O [WX006]

IC50 ([1]; Homo sapiens, HT-29): 11 nM
IC50 [2]: 0.48 nM
Oral DNAUC (AUCPO/Dose) [3]: 1086 nM · h/mpk
clearance [3]: 14.4 mL/min/kg
Vd [3]: 1.7 L/kg
bioavailability [3]: 46%
half-life [3]: 1.3 h
Cmax [3]: 595 nM
Compound: Cc1cnc(Nc2ccnn2C)nc1-c1nc2c(s1)C1(COC1)N(Cc1cccc(Cl)c1)C2=O [WX007]
TGI (inhibition rate of tumor growth) ([4]; 18th day, HCT-116 xenograft in nude mouse): 62%
Body weight of assay animals ([4]; to the 18th day): did not decrease significantly
